{
  "source": "patent US12246009B2",
  "about": "“Compositions and methods for treating neurodegenerative, myodegenerative, and lysosomal storage disorders” (GEORGETOWN UNIVERSITY, priority 2018, dated 2025)",
  "key": {"[1]": {"target": "T1, Ab1 (Mus musculus, UniProt P00520)", "T1 construct": "Brains from treated mice compared with DMSO treated mice were homogenized in STEN lysis buffer; from tissue; host or cells: brain of rTg4510 or TgAPP mice", "assay": "Activated (phosphorylated) Ab1 (245) immunoblot in transgenic APP mice", "assay_type": "in vivo", "settings": "i.p., 21 days"}, "[2]": {"tested_on": "hippocampus of APP mice", "assay": "Nissl staining of hippocampal sections of APP mice (cell death)", "settings": "1.25 mg/kg and 2.5 mg/kg"}, "[3]": {"target": "T2, DDR1 (Mus musculus, UniProt Q03146)", "T2 construct": "Brains were collected and homogenized in 1.0 ml 1× STEN buffer; from tissue; host or cells: brain of rTg4510 or TgAPP mice", "T2 sequence (Q03146 20-911)": "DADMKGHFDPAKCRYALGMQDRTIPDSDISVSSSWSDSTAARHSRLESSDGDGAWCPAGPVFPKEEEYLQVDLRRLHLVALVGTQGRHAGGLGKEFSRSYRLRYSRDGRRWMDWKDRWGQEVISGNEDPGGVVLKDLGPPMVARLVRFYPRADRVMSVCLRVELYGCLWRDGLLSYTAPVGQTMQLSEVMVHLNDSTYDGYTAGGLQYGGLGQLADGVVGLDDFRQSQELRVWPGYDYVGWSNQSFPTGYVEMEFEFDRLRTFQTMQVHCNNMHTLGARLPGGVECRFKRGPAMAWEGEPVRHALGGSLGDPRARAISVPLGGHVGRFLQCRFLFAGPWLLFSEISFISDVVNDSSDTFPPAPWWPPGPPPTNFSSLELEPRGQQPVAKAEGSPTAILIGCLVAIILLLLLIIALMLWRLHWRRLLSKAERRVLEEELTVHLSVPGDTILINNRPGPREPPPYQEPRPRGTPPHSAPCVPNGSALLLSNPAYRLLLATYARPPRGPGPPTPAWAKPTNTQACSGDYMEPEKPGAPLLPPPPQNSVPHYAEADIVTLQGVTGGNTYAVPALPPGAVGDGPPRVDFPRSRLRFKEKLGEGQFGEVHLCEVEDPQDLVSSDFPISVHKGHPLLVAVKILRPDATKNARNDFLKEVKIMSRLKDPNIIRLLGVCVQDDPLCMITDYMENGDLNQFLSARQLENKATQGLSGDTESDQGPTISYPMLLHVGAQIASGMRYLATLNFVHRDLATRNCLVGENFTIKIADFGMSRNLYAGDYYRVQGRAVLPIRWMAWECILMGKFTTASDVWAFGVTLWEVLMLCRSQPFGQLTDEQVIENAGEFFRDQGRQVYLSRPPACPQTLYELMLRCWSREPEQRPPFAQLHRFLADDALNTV", "assay": "Phosphorylated DDR1 immunoblot in transgenic APP mice", "assay_type": "in vivo", "settings": "21 days"}, "[4]": {"tested_on": "human alpha-synuclein", "assay": "Human alpha-synuclein ELISA and immunoblot in A53T mice", "assay_type": "in vivo, mouse", "settings": "2.5 mg/kg i.p.; for alpha-synuclein level in A53T mice: vs DMSO"}, "[5]": {"tested_on": "pTau (231) (AT180)", "assay": "pTau (231) (AT180) Western blot in rTG4510 transgenic mice", "assay_type": "in vivo, mouse", "settings": "1.25 mg/kg, 2.5 mg/kg or 5.0 mg/kg"}, "[6]": {"target": "T2, DDR1", "assay": "Phosphorylated (active) DDR1 (pMCK10) immunoblot in rTG4510 mice", "assay_type": "in vivo", "settings": "for phosphorylated (active) DDR1 (pMCK10), immunoblot: 1.25 mg/kg or 2.5 mg/kg i.p."}, "[7]": {"tested_on": "α-synuclein", "assay": "α-synuclein ELISA in α-synuclein-transfected B35 cells", "assay_type": "cell-based, rat", "settings": "transfected B35 cell culture model, doses 10 uM-1 mM", "method": "Rat neuroblastoma B35 cells were grown in Dulbecco's Modified Eagle's Medium (DMEM) with 10% Fetal Bovine Serum (FBS) and 1% penicillin/streptomycin and incubated at 37° C. with 5% CO2. For the experiments, cells were transferred to 12-well plates (Cat. #150628, ThermoFisher, Waltham, MA) and grown to at least 70% confluence. Transient transfection was performed with 3 μg P301 L tau (Cat. #30145, Addgene) cDNA or 3 μg human α-synuclein cDNA using Fugene HD transfection reagent (Cat. #E2311, Promega, Madison WI) for 24 hours. Cells were treated with 1 mM, 100 μM, 10 μM, 1 μM, 0.1 μM, 0.01 μM, and 0.001 μM dissolved in DMSO or an equivalent 5 ul of DMSO for 5 hours. Cell culture media was collected and cells were harvested using sodium-tris, EDTA, NP-40 (STEN) buffer and centrifuged at 10,000×g for 20 minutes at 4′C and supernatant was collected. Cell viability was determined via lactate dehydrogenase assay (Cat. #88954, Thermofisher) and MTT assay (Cat. #V13154, Thermofisher). Protein was extracted by removing culture medium and adding 0.2 ml 1× STEN buffer (50 mM. Tris (pH 7.6), 150 mM NaCl, 2 mM EDTA, 0.2% NP-40, 0.2% BSA, 20 mM. PMSF and protease cocktail inhibitor) to cell layer and incubated on ice for 10 minutes. The bottom of the well was scraped and allowed to incubate on ice for an additional 10 minutes. Cell lysates were collected, stored at −80° C., and used for additional analyses.\nTo perform transient transfection of α-synuclein into the rat neuroblastoma B35 cells FuGene® HD Transfection Reagent (Promega Corporation, Madison, WI) was used. Cells were grown in 12-well dishes. […]\nHuman α-synuclein and p-tau ELISA were performed using 50 μl (1 μg/4 μl) of cell lysates detected with 50 μl primary antibody (3 h) and 100 μl anti-rabbit secondary antibody (30 min) at RT. α-Synuclein levels were measured using human specific ELISA (Invitrogen Inc., Carlsbad, CA) according to manufacturer's protocols. Tau was measured using specific tau at serine 396 according to manufacturer's protocol. […]"}, "[8]": {"tested_on": "pTau (181)", "assay": "pTau (181) ELISA/Xmap in Tau expressing transgenic (rTG4510) mice", "assay_type": "in vivo, mouse"}},
  "note": "Entries after “also recorded” stand apart in the source; their conditions may differ.",
  "data": [
    {"smiles": "Cc1cccc(-c2cc3nccc(Nc4ccccc4)c3s2)c1", "note": "[BK40143, N-Phenyl-2-(m-tolyl)thieno[3,2-b]pyridin-7-amine]", "values": [
      {"measurement": "activated (phosphorylated) Ab1 (245)", "setting": "[1]", "result": "does not engage Ab1; also recorded: did not engage Ab1"},
      {"measurement": "cell death in the hippocampus (Nissl staining intensity)", "setting": "[2]", "result": "does not cause cell death"},
      {"measurement": "deactivation of DDR1 (phosphorylated DDR1 immunoblot)", "setting": "[3]; 1.25 mg/kg i.p.", "result": 40, "unit": "%"},
      {"measurement": "deactivation of DDR1 (phosphorylated DDR1 immunoblot)", "setting": "[3]; 2.5 mg/kg i.p.", "result": 31, "unit": "%"},
      {"measurement": "reduction in the level of human alpha-synuclein, ELISA", "setting": "[4]; 21 consecutive days, vs DMSO treated A53T mice", "result": 39, "unit": "%"},
      {"measurement": "alpha-synuclein level in A53T mice", "setting": "[4]; 21 consecutive days, 2.5 mg/kg", "result": "significantly reduces"},
      {"measurement": "alpha-synuclein level in A53T mice", "setting": "[4]; 21 consecutive days, listed as BK-40143, 2.5 mg/kg", "result": "significantly decreased"},
      {"measurement": "reduction in alpha-synuclein, immunoblots", "setting": "[4]; 21 days, immunoblots mirrored the ELISA", "result": 40, "unit": "%"},
      {"measurement": "levels of pTau (231) (AT180), Western blot", "setting": "[5]", "result": "did not affect"},
      {"measurement": "phosphorylated (active) DDR1 (pMCK10), immunoblot", "setting": "[6]; rTG4510 mice, 7 days", "result": "deactivated DDR; also recorded: deactivated DDR1"},
      {"measurement": "phosphorylated (active) DDR1 (pMCK10), immunoblot", "setting": "[6]; rTG4510 mice, 7 days, listed as BK-40143", "result": "in vivo inhibition of DDR1"},
      {"measurement": "deactivation of DDR1 (phosphorylated DDR1 immunoblot)", "setting": "[6]; rTG4510 mice, 5 mg/kg i.p., 7 days", "result": "not"},
      {"measurement": "deactivation of DDRs", "setting": "[6]; rTG4510 tauopathy mouse model, i.p., 7 consecutive days", "result": "about 50%"},
      {"measurement": "level of alpha-synuclein", "setting": "[7]", "result": "appear to reduce the level of alpha-synuclein"},
      {"measurement": "pTau (181) level, ELISA", "setting": "[8]; Tau expressing transgenic mice, seven days of treatment", "result": "reduces pTau (181)"},
      {"measurement": "phosphorylated Tau (AT181), ELISA", "setting": "[8]; rTG4510 mice, 2.5 mg/kg i.p., 7 consecutive days, 2.5 mg/kg", "result": "significantly reduced phosphorylated Tau"}
    ]}
  ]
}
